Values of other authors, collected in patent US20050013939A1, “Boron-based wood preservatives and treatment of wood with boron-based preservatives” (priority 2001, published 2005).

What was measured:
Insect = details: boric acid equivalents typically required in wood
fungal decay = details: boric acid equivalents typically required in wood

Which “% wt/wt BAE required, Insect protection” value (Insect) does the source give for `OB(O)O` [boric acid] here?
Its value is 0.25 % wt/wt.

What about the “% wt/wt BAE required, Fungicidal protection” value (fungal decay) of the same molecule?
Its value is 0.75 % wt/wt.
